From patent publication US20160139123A1, “Shear Wave Imaging Method and Installation for Collecting Information on a Soft Solid” (INSTITUT NATIONAL DE LA SANTE ET DE LA RECHERCHE MEDICALE …, priority 2013, published 2016)

Tested on: naive CD4 T cells
Assay: Differentiation induction of naive CD4 T cells (DP8α induction)
Type: cell-based, human
Settings: for effect on the frequency of DP8α cells: short chain fatty acid added to the induction culture
Method: Naive CD4 T cells are obtained from PBMC or PBL using the EasySep negative selection kit for naive CD4 T cells ([…] technologies).
Monocytes are isolated from PBMC using the CD14 microbeads positive selection kit of Miltenyi.
Immature dendritic cells (iDC) are prepared from monocytes (CD14+) cultured for 3 days with IL-4 (200 IU/ml) and GM-CSF (1000 IU/ml). Said cells are also called mo-iDC (monocyte-derived immature dendritic cells).
Immature DC are co-cultured for a night with thawed F. prausnitzii bacteria at 1:1 ratio in the presence or not of butyrate. The iDC are then added to naive CD4 cells for 5 days in the presence of IL-2.
Alternatively, butyrate is added later, at the same time as naive CD4 T cell.
DP8α induction is measured by a labeling with CD3-PE (phycoerythrin), CD4-FITC, CD8-APC (allophycocyanin) antibodies. The results are compared with those obtained with unstimulated CD4 T cells, CD4 T cells stimulated by iDC alone and CD4 T cells stimulated by iDC loaded with E. coli.

Compound | effect on the frequency of DP8α cells | fraction of naive CD4 T cells that acquire the DP8α phenotype (mean) (butyrate 0.145 mM added to iDC loaded with F. prausnitzii) [%]
CCC(=O)O [propionate] | no or few effect | –
CC(=O)O [acetate] | no or few effect | –
CCCC(=O)O [butyrate] | – | 6
